The assay relates to excised porcine lenses. In words: Protein oxidation (OxyBlot) in excised porcine lenses cultured under hyperoxic conditions mimicking post-vitrectomy oxygen levels. In kind it is cell-based. How it is done: To assess the ability of the antioxidant compositions including non-reducing sugars to reduce oxidative damage to an eye lens of a subject, trehalose, a non-reducing disaccharide, was applied to lenses being cultured under hyperoxic (high oxygen) conditions that mimic post-vitrectomy intravitreal oxygen levels. Briefly, six excised porcine lenses were cultured in M199 media with 4% porcine serum at 37° C. for 1 week to acclimate to culture conditions. Then, 3 lenses were exposed to media with 7.5% trehalose while three control lenses remained untreated. At regular intervals, incubated lenses were examined under a dissecting microscope against a background of black gridlines. The oxygen concentration was controlled to mimic post-vitrectomy conditions. After 10 days, each lens was analyzed for protein oxidation using the OxBlot Oxidized Protein Detection Kit (Chemicon, International, Billerica, MA) to quantify the ability of the gel application method to protect the lens.
The method described above was used to compare the effect of a subject trehalose composition freely dispersed in the tissue culture media (FIG. 1, first bar) to a biogel composition that was described by Tezel et al. in WO2014081969A1 (“Compositions and methods for reducing oxidative damage”) and which includes trehalose within a polymer gel. […]

SMILES strings stand for the structures.

Regarding `OC[C@H]1O[C@H](O[C@H]2O[C@H](CO)[C@@H](O)[C@H](O)[C@H]2O)[C@H](O)[C@@H](O)[C@@H]1O` [trehalose, α,α-1,1-Trehalose], the “amount of protein oxidation in the lens (in words)” value (administration of trehalose to the eye lens, ex vivo, FIG. 1) is listed as “reduced an amount of protein oxidation in the lens”. The “reduction in protein oxidation levels to” value (trehalose composition freely dispersed in tissue culture media (7.5% trehalose), hyperoxic culture, 10 days, FIG. 1 bar 1) is “about 20%”.

Values taken from US12403088B2, “Ophthalmic compositions and methods for reducing oxidative damage to an eye lens” (University of Louisville Research Foundation, Inc., priority 2015, dated 2025).
